The text below walks through data of US4119635A, “Substituted 1,2,4-triazole derivatives” (Gruppo Lepetit S.p.A., priority 1971, dated 1978).

Data set [1] relates to mice. Kind of data set: Spontaneous activity (S. Irwin scheme). It is filed as in vivo. The note with it: Mus musculus, ip, read-out: Decrease of spontaneous activity ED50. The source says:
(§1) As stated before, the compounds of the invention have CNS depressant utility. More exactly, the compounds of Examples 1,2,3,5-10, 14, 31(42), 32(56), 34, 35 and 45(55) are useful as sedatives and hypnotics. These pharmacological properties were ascertained by following the operative scheme and the manipulation procedure described by S. Irwin in Psychopharmacologia (Berl.), 13, 222, 1968. Especially, there were studied the biological effects of the compounds on two of the parameters which are closely related to the above properties, namely the "spontaneous activity" and the "righting reflex". The effects of the compounds on these two parameters were expressed as ED50 values ie., the amount of compound tested which reduces the spontaneous activity and righting reflex scores of test animals to 50% of those of the controls. The scores are the same as those reported by S. Irwin in the cited paper. For each compound it was also determined the minimal dosis which produces complete hypnosis of the test animals (MHD).
(§2) The obtained results are summarized in the following table, which also reports the toxicities of the tested substances, expressed as LD50 values. For comparison purposes, also the activity of two known compounds was determined. The known compounds are 1-methyl-3,5-diphenyl-1,2,4-triazole (Compound A, Atkinson et al. Journ. Chem. Soc., 1954, 141, 1954) and 1-methyl-3-phenyl-5-(p-chlorophenyl)-1,2,4-triazole (Compound B, Huisgen et al., Journ. Org. Chem., 24, 892, 1959).

Data set [2] deals with mice. Kind of data set: Righting reflex (S. Irwin scheme). Format: in vivo. The note with it: Mus musculus, ip, read-out: Impairment of righting reflex ED50.
Text: as §1, §2

The nature of the next data set: Toxicity (LD50). The note with it: mouse, in vivo, ip. As for the experimental part: as §2
The subject of data set [3] is mice. Put plainly: Minimal dosis which produces complete hypnosis (MHD). Format: in vivo. The note with it: Mus musculus, ip, read-out: Minimal hypnotic dosis.
Text: as §1

The next data set relates to rats. Kind of data set: Secondary response avoidance test (G. Maffii), antianxiety effect. It is filed as in vivo. The note with it: 20 mg/kg i.p. As to the method:
The compounds of Examples 34 and 45(55) are also useful as anxiety relieving means. This property was investigated on the basis of the secondary response avoidance test, which was performed as described by G. Maffii, Journ. Pharm. Pharmacol., 11, 192, 1959.

[4] abbreviates: mice, dose reducing score to 50% of controls.

Read-outs that look alike come from different tables or passages of the source.

A word on the ED50: it is the dose that gives a 50% effect, or the effect in half of the subjects. A word on the LD50: it is the dose expected to kill half of the subjects tested. With `Cc1ccccc1-c1nc(-c2ccccc2)nn1C` [31(42), 1-Methyl-5-(o-tolyl)-3-phenyl-1,2,4-triazole], the ED50 in the data set with mice [1] turned out to be 60 mg/kg; in the data set with mice [2], 50 mg/kg. Besides, the LD50 in the data set “Toxicity (LD50)” (mice, read-out: Toxicity LD50) was over 1000 mg/kg. Further, the minimal effective dose in the data set with mice [3] (mice, complete hypnosis) was 300 mg/kg.

In the case of `Cc1cccc(-c2nc(-c3ccccc3C)n(C)n2)c1` [32(56), 1-Methyl-3-(m-tolyl)-5-(o-tolyl)-1,2,4-triazole], the ED50 came to 30 mg/kg in the data set on mice [1] and 20 mg/kg in the data set on mice [2]. Further, the LD50 in the data set “Toxicity (LD50)” (mice, read-out: Toxicity LD50) was over 1000 mg/kg. Besides, the minimal effective dose in the data set with mice [3] (mice, complete hypnosis) was found to be 200 mg/kg.

`Cc1ccccc1-c1nc(-c2cccc(Cl)c2)nn1C` [45(55), 1-Methyl-3-(3-chlorophenyl)-5-(o-tolyl)-1,2,4-triazole]: the 50% effective dose (ED50) was 30 mg/kg in the data set on mice [1] and 50 mg/kg in the data set with mice [2]. In the data set “Toxicity (LD50)” (mice, read-out: Toxicity LD50), the LD50 is 700 mg/kg. For the same molecule, in the data set with rats, the antianxiety effect entry is listed as “remarkable antianxiety effect”. In addition, the minimal effective dose with mice [3] (mice, complete hypnosis) amounted to 300 mg/kg.

Consider `Cn1nc(-c2ccccc2)nc1-c1ccccc1` [Compound A, 1-methyl-3,5-diphenyl-1,2,4-triazole, reference compound], for which the values for the 50% effective dose (ED50) in the data set on mice [1] and in the data set with mice [2] were over 100 mg/kg and 300 mg/kg, respectively. The LD50 in “Toxicity (LD50)” (mice, read-out: Toxicity LD50) is 1000 mg/kg. Besides, the minimal effective dose in the data set on mice [3] is over 1000 mg/kg.

For `Cn1nc(-c2ccccc2)nc1-c1ccc(Cl)cc1` [Compound B, 1-methyl-3-phenyl-5-(p-chlorophenyl)-1,2,4-triazole, reference compound], the ED50 with mice [1] (setting [4]) and in the data set on mice [2] (setting [4]) was over 300 mg/kg in each case. Moreover, the LD50 in “Toxicity (LD50)” (mice, read-out: Toxicity LD50) was over 1000 mg/kg. Further, the minimal effective dose in the data set on mice [3] (mice, complete hypnosis) is over 600 mg/kg.

As for `Cn1nc(-c2ccccc2)nc1-c1ccccc1CO` [Example 1, 5-(2-Hydroxymethylphenyl)-1-methyl-3-phenyl-1,2,4-triazole], the results for the ED50 in the data set on mice [1] (setting [4]) and in the data set on mice [2] (setting [4]) were 60 mg/kg and 100 mg/kg, respectively. For the same molecule, the LD50 in the data set “Toxicity (LD50)” (mice, read-out: Toxicity LD50) came to 1000 mg/kg. The minimal effective dose with mice [3] (mice, complete hypnosis) was determined as 300 mg/kg.

As for `Cn1nc(-c2ccccc2Cl)nc1-c1ccccc1CO` [Example 2], the ED50 with mice [1] and in the data set with mice [2] was 60 mg/kg throughout. Further, the LD50 in the data set “Toxicity (LD50)” (mice, read-out: Toxicity LD50) came to 500 mg/kg. The minimal effective dose in the data set with mice [3] (mice, complete hypnosis) amounted to 300 mg/kg.

Turning to `Cn1nc(-c2cccc(Cl)c2)nc1-c1ccccc1CO` [Example 3], the ED50 in the data set on mice [1] was found to be 30 mg/kg; with mice [2], 10 mg/kg. Further, the LD50 in the data set “Toxicity (LD50)” (mice, read-out: Toxicity LD50) is 500 mg/kg. Also, the minimal effective dose in the data set with mice [3] (mice, complete hypnosis) amounted to 200 mg/kg.

As to `Cn1nc(-c2cccc(F)c2)nc1-c1ccccc1CO` [Example 5], the ED50 came out at 30 mg/kg in the data set with mice [1] and 50 mg/kg in the data set with mice [2]. In the data set “Toxicity (LD50)” (mice, read-out: Toxicity LD50), the LD50 was determined as 400 mg/kg. In addition, the minimal effective dose with mice [3] (mice, complete hypnosis) is 150 mg/kg.

Regarding `Cc1ccccc1-c1nc(-c2ccccc2CO)n(C)n1` [Example 6, 1-methyl-3-(o-tolyl)-5-(2-hydroxymethylphenyl)-1,2,4-triazole], the ED50 in the data set on mice [1] is 50 mg/kg; in the data set with mice [2], 25 mg/kg. The LD50 in “Toxicity (LD50)” (mice, read-out: Toxicity LD50) is 1000 mg/kg. In addition, in the data set on mice [3] (mice, complete hypnosis), the minimal effective dose is 600 mg/kg.

Turning to `Cc1cccc(-c2nc(-c3ccccc3CO)n(C)n2)c1` [Example 7], the ED50 was determined as 30 mg/kg in the data set on mice [1] (setting [4]) and 20 mg/kg with mice [2] (setting [4]). The LD50 in the data set “Toxicity (LD50)” is 500 mg/kg. In addition, the minimal effective dose with mice [3] (mice, complete hypnosis) came out at 80 mg/kg.

Consider `Cc1ccc(-c2nc(-c3ccccc3CO)n(C)n2)cc1` [Example 8], for which the ED50 with mice [1] (setting [4]) amounted to 80 mg/kg; with mice [2] (setting [4]) it was 100 mg/kg. Further, in “Toxicity (LD50)”, the LD50 was over 1000 mg/kg. For the same molecule, the minimal effective dose with mice [3] (mice, complete hypnosis) was 600 mg/kg.

On to `COc1cccc(-c2nc(-c3ccccc3CO)n(C)n2)c1` [Example 9], for which the ED50 in the data set with mice [1] (setting [4]) and with mice [2] (setting [4]) was 60 mg/kg throughout. The LD50 in “Toxicity (LD50)” came to 1000 mg/kg. In addition, in the data set with mice [3] (mice, complete hypnosis), the minimal effective dose is 300 mg/kg.

In the case of `Cn1nc(-c2cccc([N+](=O)[O-])c2)nc1-c1ccccc1CO` [Example 10, 1-methyl-3-(3-nitrophenyl)-5-(2-hydroxymethylphenyl)-1,2,4-triazole], the figures for the ED50 in the data set on mice [1] (setting [4]) and with mice [2] (setting [4]) were 60 mg/kg and 40 mg/kg, respectively. Moreover, the LD50 in “Toxicity (LD50)” (mice, read-out: Toxicity LD50) is 1000 mg/kg. For the same molecule, in the data set with mice [3] (mice, complete hypnosis), the minimal effective dose is 300 mg/kg.

With `Cn1nc(-c2ccc3c(c2)OCO3)nc1-c1ccccc1CO` [Example 14], the ED50 with mice [1] (setting [4]) and in the data set on mice [2] (setting [4]) was 80 mg/kg each time. This molecule also returned an LD50 in “Toxicity (LD50)” of over 1000 mg/kg. Besides, in the data set on mice [3] (mice, complete hypnosis), the minimal effective dose was 300 mg/kg.

On to `Cc1ccccc1-c1nc(-c2cccc(N)c2)nn1C` [Example 34, 1-Methyl-3-(3-aminophenyl)-5-(o-tolyl)-1,2,4-triazole], for which the ED50 in the data set with mice [1] came to 30 mg/kg; in the data set on mice [2] it was 20 mg/kg. For the same molecule, the LD50 in “Toxicity (LD50)” (mice, read-out: Toxicity LD50) is 200 mg/kg. The antianxiety effect result in the data set with rats was “remarkable antianxiety effect”. The minimal effective dose with mice [3] (mice, complete hypnosis) turned out to be 60 mg/kg.

Take `COc1cccc(-c2nc(-c3ccccc3C)n(C)n2)c1` [Example 35, 1-Methyl-3-(3-methoxyphenyl)-5-(o-tolyl)-1,2,4-triazole]: the ED50 in the data set on mice [1] was determined as 60 mg/kg; with mice [2], 50 mg/kg. Further, in “Toxicity (LD50)” (mice, read-out: Toxicity LD50), the LD50 amounted to 1000 mg/kg. For the same molecule, the minimal effective dose in the data set on mice [3] (mice, complete hypnosis) is 300 mg/kg.
